Reference: patent US7659306B2, “Method of increasing gastric emptying” (The Board of Regents of the University of Texas System, priority 2004, dated 2010)
“Also recorded” adds a separate entry of the source. Where two headings read alike, the source gives them in different places.

Key:
[1] = target: T1, dopamine 3 receptor (D3R) (Rattus norvegicus, UniProt P19020); settings: adult male Sprague-Dawley rats, dopamine 1 mg/kg i.p. plus nafadotride 0.1 or 1 mg/kg i.p., 20 minutes after meal
Method: Gastric emptying was assessed in adult male Sprague-Dawley rats by the phenol red method. […] Control rats received vehicle (PBS).
A solution of 50 mg phenol red in 100 ml aqueous methylcellulose (1.5%) was used as a test meal. Methylcellulose (1.5 g, 400 centipoises) was dispersed in 100 ml of hot water (80° C.) under continuous shaking. The solution was allowed to cool to 35° C., and then phenol red was added. Intensity and duration (5 hr) of agitation were kept constant to obtain solutions of reproducible viscosity.
Conscious rats were fed the 0.05% phenol red methylcellulose solution and euthanized after 20 minutes. The stomach was clamped at the pylorus and cardiac ends before removal. The stomach and its contents were homogenized with 100 ml of 0.1N NaOH. A baseline control for each phenol red solution preparation was used by mixing 1.5 ml with 100 ml of 0.1N NaOH. The mixture was then kept for 1 hr at room temperature: 5 ml of the supernatant was added to 0.5 ml of trichloroacetic acid solution (20% w/v) to precipitate the proteins. […] The solutions were then read with a spectrophotometer at a wavelength of 560 nm.
Gastric emptying (G.E.) for each rat was calculated according to the following formula: (1−Absorbance of test sample)/(Absorbance of baseline control)×100%. Values were expressed as mean±SEM. […]

[2] = target: T1, dopamine 3 receptor (D3R); test: Electric field stimulation induced relaxation of pyloric strips in an organ bath; parameters: from tissue; host or cells: whole animal, adult male Sprague-Dawley rat (gastrointestinal tract); settings: pyloric strips of adult male Sprague-Dawley rats, agonist 0.1-10 µM, dose dependent, hydrochloride
Method: The pyloric function was assessed by measuring the relaxation of pyloric strips in an organ bath in response to electric field stimulation in the presence of D3R agonist ranging from 0.1-10 µM (1 µM vs control, P<0.05; 10 μM vs control, P=0.001).
Pyloric function was assessed in an organ bath by measuring the relaxation of pyloric strips of adult male Sprague-Dawley rats in the presence of the dopamine 3 receptor agonist, PD 128907 hydrochloride.

[3] = target: T1, dopamine 3 receptor (D3R); test: Gastric emptying test (phenol red method) after i.p. D3R agonist; assay type: in vivo; parameters: from tissue; host or cells: whole animal, adult male Sprague-Dawley rat (gastrointestinal tract); settings: adult male Sprague-Dawley rats, 1 mg/kg i.p., 20 minutes after phenol red methylcellulose meal, mean±SEM, vehicle 78±4.86%, hydrochloride
Method: Values were expressed as mean±SEM.
Adult male Sprague-Dawley rats (weighing 200-250 g) were deprived of food 18 hr prior to experiments but allowed free access to water. The animals were intraperitoneally injected with a dopamine 3 receptor agonist, PD 128907 hydrochloride, at 1 mg/kg or with physiological saline (control) before administration by oral tube of 1.5 ml of pre-warmed (35° C.) 0.05% phenol red solution.

T1 sequence (P19020 whole entry): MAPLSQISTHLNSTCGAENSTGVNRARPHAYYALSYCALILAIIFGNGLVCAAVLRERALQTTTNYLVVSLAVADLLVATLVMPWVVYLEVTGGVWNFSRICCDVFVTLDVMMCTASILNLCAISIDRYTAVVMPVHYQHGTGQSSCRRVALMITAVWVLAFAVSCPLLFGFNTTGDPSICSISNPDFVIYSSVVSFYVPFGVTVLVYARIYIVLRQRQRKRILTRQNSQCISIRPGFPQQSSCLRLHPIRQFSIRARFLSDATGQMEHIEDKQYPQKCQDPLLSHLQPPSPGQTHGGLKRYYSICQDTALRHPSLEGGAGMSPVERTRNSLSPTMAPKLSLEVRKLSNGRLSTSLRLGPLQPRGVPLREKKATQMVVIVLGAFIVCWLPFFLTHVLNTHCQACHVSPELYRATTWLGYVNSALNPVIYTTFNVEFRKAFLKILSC

Compound	reversal of the effect of dopamine on gastric emptying [1]	reversal of the effect of dopamine on gastric emptying ([1]; listed as Nafadotride)	electric field stimulation induced relaxation of pyloric strips [2]	gastric emptying [3] [%]	gastric emptying ([3]; listed as D3R agonist) [%]
CCCCN1CCCC1CNC(=O)c1cc(C#N)c2ccccc2c1OC (centres unmarked) [nafadotride]	partial reversal of the effect of dopamine on gastric emptying	partially reverse the effect of dopamine			
CCCN1CCO[C@@H]2c3cc(O)ccc3OC[C@H]21.Cl [PD 128907 hydrochloride]			reduced electric field stimulation induced relaxation of pyloric strips; also recorded: significant reduction in electric field stimulation induced relaxation of pyloric strips	44	44±8.26
